The target in data set [1] is T1, Human immunodeficiency virus type 1 reverse transcriptase (Human immunodeficiency virus 1, UniProt Q72547). Nature of the data set: Inhibition of HIV reverse transcriptase.
The target in data set [2] is T1, Human immunodeficiency virus type 1 reverse transcriptase. Nature of the data set: Inhibition of HIV1 recombinant wild type reverse transcriptase p66/p51 using dsDNA by microplate reader based assay.
The test system of data set [3] is Human immunodeficiency virus 1. Nature of the data set: Antiviral activity against HIV1 3B acutely infected in human MT4 cells assessed as inhibition of virus-induced cytopathogenic effect after 5 days by MTT assay. It is filed as functional, organism-based. The following applies: Human immunodeficiency virus 1, 3B, MT4, 120 h.
The test system of data set [4] is Human immunodeficiency virus 2. Kind of data set: Antiviral activity against HIV2 ROD acutely infected in human MT4 cells assessed as inhibition of virus-induced cytopathogenic effect after 5 days by MTT assay. It is filed as functional, organism-based. The note with it: Human immunodeficiency virus 2, ISOLATE ROD, MT4, 120 h.
The subject of data set [5] is Human immunodeficiency virus 1. Kind of data set: Antiviral activity against HIV1 latently infected in PMA-stimulated human OM10.1 cells assessed as reduction in p24 antigen levels pre-incubated for 2 hrs with host cells followed by 2 day incubation. It is filed as functional, organism-based.
The nature of data set [6]: Cytotoxicity against human OM10.1 cells by MTT assay. It is filed as cell-based.
The test system of data set [7] is HeLa. Kind of data set: Cytotoxicity against human HeLa cells at 10 uM to 200 uM after 24 hrs. It is filed as cell-based.
Data set [8] can be described thus: Selectivity index, ratio of CC50 for human OM10.1 cells to IC50 for HIV1 latently infected in human OM10.1 cells. It is filed as functional.
Data set [9] can be described thus: Cytotoxicity against mock-infected human MT4 cells after 5 days by MTT assay. It is filed as cell-based.
For data set [10], the target named is T2, Protein Tat (Human immunodeficiency virus type 1 group M subtype B (isolate HXB2)(HIV-1)) (UniProt P04608).
T2 sequence (whole entry): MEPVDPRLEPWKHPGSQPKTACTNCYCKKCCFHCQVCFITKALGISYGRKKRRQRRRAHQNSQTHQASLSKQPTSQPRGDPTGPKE
Nature of the data set: Inhibition of HIV1 Tat-mediated transactivation of HIV1 long terminal repeat in human HeLa cells after 24 hrs by LTR driven luciferase reporter assay. The following applies: Human immunodeficiency virus 1. It is filed as cell-based.

Calls of active or inactive are those of the source. The rule behind the calls is not given here. A value given as a limit tells only on which side of the number the result lay.

The compound `CCN1c2ncc(CCOc3cc[n+]([O-])c4ccccc34)cc2C(=O)N(C)c2cccnc21` [BILR 355] displayed a 50% inhibitory concentration (IC50) in [1] of 0.017 µM.
Turning to `Cn1cc(C(=O)O)c(=O)c2cc(N)c(N3CCN(c4ccccn4)CC3)cc21`, the half-maximal inhibitory concentration (IC50) in data set [2] is 800 µM. Moreover, the values for the EC50 in data set [3], in data set [4] and in data set [5] were 0.15 µM, 0.25 µM and 0.076 µM, respectively. Besides, the half-maximal cytotoxic concentration (CC50) in [6] is 31.2 µM.
Take `CCN1c2ncccc2NC(=O)c2ccc(N3CCN(c4cc5c(cc4N)c(=O)c(C(=O)O)cn5C)CC3)nc21`: the Activity entry in data set [7] is listed as “Non-toxic”. Also, the “Ratio CC50/IC50” value in [8] is on record as 4. The half-maximal inhibitory concentration (IC50) in data set [2] was 8.4 µM. Besides, the concentration for a half-maximal effect (EC50) in data set [3] is greater than 23.5 µM; in data set [4], greater than 23.5 µM; in data set [5] it was 5.11 µM. In [9], this compound gave a CC50 at 120 h of 23.5 µM. In data set [6], the 50% cytotoxic concentration (CC50) is 18.4 µM. Further, in data set [10], the inhibition result was “Dose-dependent effect”.
For `CCN1c2ncccc2NC(=O)c2cc(NCCNc3cc4c(cc3N)c(=O)c(C(=O)O)cn4C)cnc21`, in data set [2], the IC50 was 73.4 µM. The EC50 in data set [3] and in data set [4] was greater than 200 µM throughout. Further, the CC50 at 120 h in data set [9] is greater than 200 µM. Also, the inhibition entry in data set [10] is “inactive”.
As to `CCN1c2ncccc2NC(=O)c2cc(N3CCN(c4cc5c(cc4N)c(=O)c(C(=O)O)cn5C)CC3)cnc21`, the IC50 in [2] turned out to be 14.8 µM. The EC50 in data set [3] and in [4] was greater than 25.7 µM in each case. In [9], this compound showed a CC50 at 120 h of 25.7 µM. The inhibition entry in [10] was “inactive”.
On to `Cc1ccnc2c1NC(=O)c1cccnc1N2C1CC1` [NEVIRAPINE], for which the concentration giving a half-maximal response (EC50) in [4] was greater than 15 µM. In data set [9], this compound displayed a CC50 at 120 h greater than 15 µM.

Values taken from ChEMBL document CHEMBL3352607, “Exploiting the anti-HIV 6-desfluoroquinolones to design multiple ligands” (Bioorg Med Chem, 2014).
